From US20200046647A1, “EXOSOME-BASED NANOPARTICLE COMPOSITE AND METHOD FOR PREPARING THE SAME” (Korea University Research and Business Foundation, Sejong …, priority 2017, published 2020)
Structures can show the parent of a compound that is named as a salt.

Test: Drug release pattern analysis (dialysis bag, phosphate-buffered saline)
Assay type: physicochemical
Details: within 24 h; body temperature (37° C.); PBS pH 7.4; FIG. 7
Protocol: The core/shell nanoparticle composite prepared in Example 1-1 was sampled, placed in a dialysis bag (molecular weight filtration limit: 100,000), and impregnated with 30 ml of phosphate-buffered saline (PBS, pH 7.4). The amount of the sampled nanoparticle composite was determined such that 10 mg of the doxorubicin-HCl was present in the sample. The phosphate-buffered saline was stirred at 100 rpm while maintaining the temperature at 37.5° C. After the lapse of a predetermined time, 5 ml of the phosphate-buffered saline was sampled. The amount of the drug released was measured by […]. After sampling, the remaining phosphate-buffered saline was completely removed and replaced with a fresh one. The amount of the doxorubicin-HCl released was measured using a UV-Vis spectrometer (G1103A, Agilent, USA).
For comparison, each of doxorubicin-HCl (10 mg) and the liposome-based core/shell nanoparticle composite prepared in Comparative Example 1 (containing 10 mg of doxorubicin-HCl) was added to 10 mL of distilled water. The release behavior of the drug in the aqueous solution was measured by the same procedure as described above.

COc1cccc2c1C(=O)c1c(O)c3c(c(O)c1C2=O)C[C@@](O)(C(=O)CO)C[C@@H]3O[C@H]1C[C@H](N)[C@H](O)[C@H](C)O1 [doxorubicin-HCl]
drug released into phosphate-buffered saline: > 95%
